One assay has as its target T1, Coagulation factor XII (Homo sapiens, UniProt P00748).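 Also: activated factor XIIa alpha cleaving a fluorogenic AMC peptide substrate; inhibitor potency from loss of enzyme activity.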
T1 sequence (P00748 whole entry): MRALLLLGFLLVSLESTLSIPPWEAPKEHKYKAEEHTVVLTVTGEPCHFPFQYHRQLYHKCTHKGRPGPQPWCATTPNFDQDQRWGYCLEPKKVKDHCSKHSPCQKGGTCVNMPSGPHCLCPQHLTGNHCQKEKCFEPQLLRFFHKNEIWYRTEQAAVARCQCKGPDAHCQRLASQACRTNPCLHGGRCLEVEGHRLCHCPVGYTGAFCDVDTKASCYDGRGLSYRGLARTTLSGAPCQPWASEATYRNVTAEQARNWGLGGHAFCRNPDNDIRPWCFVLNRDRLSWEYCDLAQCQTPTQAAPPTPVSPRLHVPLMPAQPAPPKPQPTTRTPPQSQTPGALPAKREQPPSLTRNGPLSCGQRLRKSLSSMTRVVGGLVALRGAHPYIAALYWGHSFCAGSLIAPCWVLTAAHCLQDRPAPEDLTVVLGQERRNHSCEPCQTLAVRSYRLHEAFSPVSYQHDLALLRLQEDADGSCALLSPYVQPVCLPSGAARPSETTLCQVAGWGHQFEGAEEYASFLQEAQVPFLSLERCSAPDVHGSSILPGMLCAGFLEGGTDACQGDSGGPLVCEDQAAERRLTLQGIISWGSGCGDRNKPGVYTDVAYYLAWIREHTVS
The assay is classed as functional.

Assay [1] deals with T2, Calpain-2 catalytic subunit (Sus scrofa, UniProt P43367).
T2 sequence (P43367 whole entry): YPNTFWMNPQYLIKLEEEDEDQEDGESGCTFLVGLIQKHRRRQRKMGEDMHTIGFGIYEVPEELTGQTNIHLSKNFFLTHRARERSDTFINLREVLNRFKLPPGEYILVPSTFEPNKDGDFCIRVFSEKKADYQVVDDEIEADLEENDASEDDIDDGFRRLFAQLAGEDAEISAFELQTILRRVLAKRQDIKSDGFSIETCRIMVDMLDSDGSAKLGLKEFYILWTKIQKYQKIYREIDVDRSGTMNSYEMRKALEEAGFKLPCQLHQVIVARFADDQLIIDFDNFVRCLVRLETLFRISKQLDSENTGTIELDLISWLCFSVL
In words: pig calpain II inhibitor potency, dose response, biochemical, fluorogenic peptide substrate (AID 1420). The class given is functional.

The next assay addresses T3, Protein RecA (Mycobacterium tuberculosis, UniProt P9WHJ3).
T3 sequence (P9WHJ3 whole entry): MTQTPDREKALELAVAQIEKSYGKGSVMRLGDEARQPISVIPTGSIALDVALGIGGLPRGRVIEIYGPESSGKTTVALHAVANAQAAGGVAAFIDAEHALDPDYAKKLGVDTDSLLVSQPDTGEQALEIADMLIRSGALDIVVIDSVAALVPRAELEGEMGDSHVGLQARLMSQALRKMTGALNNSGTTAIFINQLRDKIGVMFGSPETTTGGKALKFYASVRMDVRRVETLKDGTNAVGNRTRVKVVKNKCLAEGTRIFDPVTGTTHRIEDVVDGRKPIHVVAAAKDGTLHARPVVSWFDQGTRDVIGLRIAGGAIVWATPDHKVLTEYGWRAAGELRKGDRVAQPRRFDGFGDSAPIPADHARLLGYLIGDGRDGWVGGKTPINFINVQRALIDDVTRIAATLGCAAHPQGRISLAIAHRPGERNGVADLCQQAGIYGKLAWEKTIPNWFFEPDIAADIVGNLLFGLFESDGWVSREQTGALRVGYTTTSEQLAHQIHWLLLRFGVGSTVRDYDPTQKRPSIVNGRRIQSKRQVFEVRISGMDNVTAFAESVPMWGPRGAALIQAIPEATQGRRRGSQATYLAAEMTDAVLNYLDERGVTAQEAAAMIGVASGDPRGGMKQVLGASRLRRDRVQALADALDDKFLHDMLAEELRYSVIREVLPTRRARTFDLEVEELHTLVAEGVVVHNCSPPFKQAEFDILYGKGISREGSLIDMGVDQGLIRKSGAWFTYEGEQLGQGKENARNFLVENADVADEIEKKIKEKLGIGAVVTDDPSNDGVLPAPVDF
As to the kind of experiment: Fluorescence Cell-Free Homogeneous Dose Retest to Identify Inhibitors of RecA-Intein Splicing Activity. [Related pubchem assays (depositor defined):AID2097, AID2223, AID489010, AID492950]. The assay is classed as functional.

Assay [2] addresses T4, Replicative DNA helicase DnaB (Mycobacterium tuberculosis, UniProt P9WMR3).
T4 sequence (P9WMR3 whole entry): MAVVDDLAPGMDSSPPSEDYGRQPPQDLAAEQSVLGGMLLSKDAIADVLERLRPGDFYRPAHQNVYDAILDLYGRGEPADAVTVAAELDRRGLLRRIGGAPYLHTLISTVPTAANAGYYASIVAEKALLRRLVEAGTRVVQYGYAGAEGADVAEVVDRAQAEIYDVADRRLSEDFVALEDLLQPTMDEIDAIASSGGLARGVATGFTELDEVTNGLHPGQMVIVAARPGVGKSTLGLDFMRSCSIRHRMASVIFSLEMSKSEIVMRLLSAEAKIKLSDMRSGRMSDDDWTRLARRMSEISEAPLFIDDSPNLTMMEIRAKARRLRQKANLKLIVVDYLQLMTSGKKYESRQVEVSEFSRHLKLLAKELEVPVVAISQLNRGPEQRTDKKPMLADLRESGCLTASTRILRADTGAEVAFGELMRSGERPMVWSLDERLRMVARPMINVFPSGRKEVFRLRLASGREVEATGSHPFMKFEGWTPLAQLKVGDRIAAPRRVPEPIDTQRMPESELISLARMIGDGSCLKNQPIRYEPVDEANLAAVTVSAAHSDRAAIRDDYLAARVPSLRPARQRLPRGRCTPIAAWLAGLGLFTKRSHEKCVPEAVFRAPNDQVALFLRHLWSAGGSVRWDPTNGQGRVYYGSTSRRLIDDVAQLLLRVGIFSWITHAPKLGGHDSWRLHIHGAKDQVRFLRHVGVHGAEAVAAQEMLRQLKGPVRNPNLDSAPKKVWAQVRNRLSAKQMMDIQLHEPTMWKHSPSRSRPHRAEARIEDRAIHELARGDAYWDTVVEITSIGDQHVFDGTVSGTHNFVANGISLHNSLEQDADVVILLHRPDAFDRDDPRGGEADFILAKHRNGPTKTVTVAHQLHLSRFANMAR
As to the kind of experiment: DnaB intein splicing inhibitors, dose response, biochemical, cell-free fluorescence (AID 449749). The class given is functional.

For a further assay, the target named is Cytochrome P450 2D6 (Homo sapiens, UniProt P10635).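 Also: CYP2D6 member of a cytochrome P450 panel assay.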
Another assay deals with Cytochrome P450 2C9 (Homo sapiens, UniProt P11712).
The nature of assay [3]: A549 cell cytotoxicity, dose response, cytotoxicity control, plate reader, cherry-pick, antagonist series (AID 743412). The class given is functional, cell-based.
Assay [4] in a line: HepG2 cell cytotoxicity, dose response, cytotoxicity control, plate reader, cherry-pick, antagonist series (AID 743416). The class given is functional, cell-based.
A short description of assay [5]: LGR2 antagonists, dose response, cell-based, HEK293, CRE-luciferase reporter, cherry pick, set 2 (AID 743343).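 Also: transfected cells were stimulated with diluted bursicon conditioned medium after compound addition.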 The class given is functional. For orientation: Reporter assays use an easily measured gene product as a stand-in for the process of interest.
Assay [6] is described as follows: MC4R antagonists, dose response, counter-screen for LGR2 antagonist project, cell-based, plate reader, cherry pick (AID 743444).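 Also: transfected HEK 293 cells stimulated with alpha-MSH peptide; potency of inhibitors of the alpha-MSH evoked signal.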 The assay is classed as functional.
The target in assay [7] is Eukaryotic translation initiation factor 4E (Mus musculus, UniProt P63073). In words: eIF4E–eIF4G protein interaction inhibitors, dose response, biochemical, TR-FRET (AID 855).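 Also: potency for disrupting eIF4E binding to eIF4GI seen as loss of FRET.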 The class given is functional. (In general: TR-FRET usually uses a lanthanide donor and a delayed reading to cut background.)
Assay [8] in a line: HEp-2 cell cytotoxicity, dose response, cytotoxicity control for RSV inhibitor project, HTS (AID 2410). The assay is classed as functional. The note with it: human respiratory syncytial virus.
In assay [9] the target is T5, Rac GTPase-activating protein 1 (Homo sapiens, UniProt Q9H0H5).
T5 sequence (Q9H0H5 whole entry): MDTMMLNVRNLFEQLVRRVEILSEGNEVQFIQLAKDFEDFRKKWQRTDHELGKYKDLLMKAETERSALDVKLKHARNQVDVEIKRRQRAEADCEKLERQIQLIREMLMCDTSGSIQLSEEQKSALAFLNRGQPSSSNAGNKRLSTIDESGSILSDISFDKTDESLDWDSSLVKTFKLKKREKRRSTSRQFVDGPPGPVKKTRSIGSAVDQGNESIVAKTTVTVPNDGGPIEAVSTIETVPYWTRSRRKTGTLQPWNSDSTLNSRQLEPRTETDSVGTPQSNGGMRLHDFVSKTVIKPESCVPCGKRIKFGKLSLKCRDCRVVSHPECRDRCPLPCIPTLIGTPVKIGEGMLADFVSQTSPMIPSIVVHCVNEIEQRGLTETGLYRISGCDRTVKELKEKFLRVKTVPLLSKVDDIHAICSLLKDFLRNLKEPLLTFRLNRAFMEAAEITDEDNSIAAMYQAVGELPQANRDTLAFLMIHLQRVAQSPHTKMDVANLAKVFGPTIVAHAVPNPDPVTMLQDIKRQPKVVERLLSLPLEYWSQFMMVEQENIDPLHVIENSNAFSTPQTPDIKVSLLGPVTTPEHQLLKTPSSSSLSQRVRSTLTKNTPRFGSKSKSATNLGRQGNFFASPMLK
In words: MgcRacGAP GTPase-activating activity inhibitors, confirmation, biochemical, ADP Hunter fluorescence, primary and confirmatory (AID 624330). The class given is functional.

For assay [10], the target named is T6, Heat shock factor protein 1 (Mus musculus, UniProt P38532).
T6 sequence (P38532 whole entry): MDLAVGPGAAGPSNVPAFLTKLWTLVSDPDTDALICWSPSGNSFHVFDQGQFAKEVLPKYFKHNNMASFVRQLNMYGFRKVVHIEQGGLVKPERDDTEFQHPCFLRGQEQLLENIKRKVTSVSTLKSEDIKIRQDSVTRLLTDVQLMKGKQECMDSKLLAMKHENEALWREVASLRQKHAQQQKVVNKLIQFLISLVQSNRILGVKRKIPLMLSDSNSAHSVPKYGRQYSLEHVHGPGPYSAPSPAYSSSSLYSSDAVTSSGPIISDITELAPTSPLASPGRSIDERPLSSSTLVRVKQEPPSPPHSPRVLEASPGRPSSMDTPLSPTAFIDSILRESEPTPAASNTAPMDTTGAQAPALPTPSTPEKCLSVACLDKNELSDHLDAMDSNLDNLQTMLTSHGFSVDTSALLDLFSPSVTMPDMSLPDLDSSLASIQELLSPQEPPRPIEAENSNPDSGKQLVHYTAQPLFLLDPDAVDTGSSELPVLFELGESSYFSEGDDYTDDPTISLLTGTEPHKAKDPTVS
In words: inhibition of MG132-induced HSE-luciferase signal, confirmation, cell-based, NIH3T3, luminescence, dose retest (AID 2382).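 Also: NIH3T3 fibroblasts with HSF1-driven luciferase reporter stressed by proteasome inhibitor MG132; luminescence from HSF1-driven luciferase expression after 8 hours of MG132 stress.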 The class given is functional.

A further assay concerns INS1. In words: beta cell apoptosis inhibitors, cytokine rescue, dose response, luminescence, retest (AID 449756).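 Also: cell death triggered by IL-1 beta plus TNF-alpha plus IFN-gamma mixture; protective hits raise ATP signal compared with cytokine alone wells.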 The note with it: Rattus norvegicus. The class given is functional, cell-based.
The nature of assay [11]: P. falciparum Dd2 growth inhibitors, dose response, SYBR Green, cherry-picked samples (AID 1159567). The assay is classed as functional, cell-based.

The source made the active and inactive calls. Bounds are passed on as bounds.

As usually defined, the IC50 is the midpoint of a concentration-inhibition curve. As usually defined, the EC50 is the midpoint of the concentration-response curve. One may read the AC50 as the concentration giving half of the maximal activity seen. The term CC50 denotes the concentration that lowers cell viability or growth by half.

Sequence of Eukaryotic translation initiation factor 4E (P63073 whole entry): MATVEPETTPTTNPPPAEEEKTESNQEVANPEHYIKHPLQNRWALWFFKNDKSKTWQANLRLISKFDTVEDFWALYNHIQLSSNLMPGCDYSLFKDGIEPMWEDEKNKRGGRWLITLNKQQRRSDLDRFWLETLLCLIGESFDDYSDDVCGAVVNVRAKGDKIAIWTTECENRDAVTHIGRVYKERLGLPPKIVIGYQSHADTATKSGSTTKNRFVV
Sequence of Cytochrome P450 2D6 (P10635 whole entry): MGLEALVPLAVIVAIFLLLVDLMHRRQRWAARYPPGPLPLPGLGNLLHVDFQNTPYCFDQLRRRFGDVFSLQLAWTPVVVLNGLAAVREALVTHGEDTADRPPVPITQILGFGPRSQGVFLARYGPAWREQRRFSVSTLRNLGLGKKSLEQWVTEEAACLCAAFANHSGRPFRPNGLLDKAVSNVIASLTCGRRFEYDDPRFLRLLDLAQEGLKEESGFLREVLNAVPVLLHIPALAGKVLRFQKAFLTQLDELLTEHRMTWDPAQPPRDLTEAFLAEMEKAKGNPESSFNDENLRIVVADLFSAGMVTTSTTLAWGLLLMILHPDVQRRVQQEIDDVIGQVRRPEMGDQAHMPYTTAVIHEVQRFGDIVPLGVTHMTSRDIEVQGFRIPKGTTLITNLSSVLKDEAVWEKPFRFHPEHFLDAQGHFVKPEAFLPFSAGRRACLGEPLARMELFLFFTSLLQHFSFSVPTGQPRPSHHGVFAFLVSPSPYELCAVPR
Sequence of Cytochrome P450 2C9 (P11712 whole entry): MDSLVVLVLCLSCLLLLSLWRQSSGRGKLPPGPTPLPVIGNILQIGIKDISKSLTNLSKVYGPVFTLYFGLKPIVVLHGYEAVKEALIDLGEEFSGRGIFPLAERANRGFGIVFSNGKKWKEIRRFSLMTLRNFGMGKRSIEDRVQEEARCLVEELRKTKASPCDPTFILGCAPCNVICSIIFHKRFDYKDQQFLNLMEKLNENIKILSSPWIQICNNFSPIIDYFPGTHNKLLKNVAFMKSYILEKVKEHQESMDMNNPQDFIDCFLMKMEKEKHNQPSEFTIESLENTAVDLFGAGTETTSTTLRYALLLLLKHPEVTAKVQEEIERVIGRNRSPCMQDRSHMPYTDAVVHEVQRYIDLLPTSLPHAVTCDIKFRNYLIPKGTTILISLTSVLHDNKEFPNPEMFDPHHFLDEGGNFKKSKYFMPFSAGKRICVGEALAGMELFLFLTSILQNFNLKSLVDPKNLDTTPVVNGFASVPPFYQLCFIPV

As for `C=CCSc1nc(C)c(CC=C)c(O)n1`, the IC50 at Coagulation factor XII is > 50 µM (inactive).

As to `CCOc1ccccc1Nc1nnc(Cc2ccccc2Cl)c(O)n1`, in assay [1], the IC50 is > 50 µM (not active). Moreover, on Protein RecA, the half-maximal effective concentration (EC50) is 21 µM (active). The AC50 in [2] was > 380 µM (inactive).

As for `CCN(CC)S(=O)(=O)c1ccc2oc(C(=O)NCc3ccc(C)cc3)c(C)c2c1`, the IC50 in assay [1] was 26.3 µM (not active).

With `Cc1c(=O)n(OCc2ccccc2F)c2ccccc2[n+]1[O-]`, in [1], the concentration for half-maximal inhibition (IC50) is reported as 25.6 µM (not active).

Regarding `CCCCc1nc(O)c(C#N)c2c1CCCC2`, the IC50 on Coagulation factor XII is > 50 µM (inactive). Further, the concentration at half-maximal activity (AC50) on Cytochrome P450 2D6 is 35.5 µM (inconclusive); at Cytochrome P450 2C9, 0.251 µM (inconclusive).

Take `Cc1ccoc1C(=O)Nc1ccc2ccccc2c1`: the AC50 in assay [3] was > 52 µM (inactive); in assay [4], 40 µM (active); in [5], 7.48 µM (active); in [6] it was 9.34 µM (active).

As for `CSc1nsc(SCC(=O)N2CCc3ccccc32)n1`, the IC50 in assay [7] is > 64 µM (inactive).

In the case of `CCOC(=O)Cn1c(=O)oc2cc(S(=O)(=O)NCc3cccs3)ccc21`, the IC50 in assay [7] was > 64 µM (inactive).

For `COC(=O)CC(NS(=O)(=O)c1cccs1)c1cccc2ccccc12` (stereo unspecified), the half-inhibitory concentration (IC50) in assay [1] is > 50 µM (not active).

For the compound `CCOC(=O)c1c(N)sc2c(O)c(Br)ccc12`, the IC50 in [7] is > 64 µM (inactive); in assay [9], 58.6 µM (active). For the same compound, the CC50 in assay [8] is 47 µM (active). The EC50 in [10] was > 195 µM (not active).

Turning to `Cc1cc(C)cc(NC(=O)c2ccccc2CC[N+](=O)[O-])c1`, the IC50 in assay [7] was > 64 µM (inactive).

Turning to `COc1cccc(Cn2c(NCc3ccco3)nc3c2c(=O)n(C)c(=O)n3C)c1`, in the assay with INS1, the AC50 was 3.85 µM (active). The IC50 on Coagulation factor XII is > 50 µM (inactive).

For the compound `Cc1ccc(-c2nn(-c3ccccc3)cc2/C=N/NS(=O)(=O)c2ccccc2)cc1`, on Coagulation factor XII, the IC50 is > 50 µM (inactive).

On to `CCCNC(=O)Nc1ccc2c(c1)C(=O)N(C)C[C@H](OC)[C@H](C)CN(Cc1ccc(-c3ccccn3)cc1)[C@@H](C)CO2`, for which the AC50 was 26.4 µM (active) in assay [3], 44 µM (active) in assay [4], 50.8 µM (active) in assay [5] and 55.8 µM (active) in assay [6].

For the compound `C/C(=N\NC(=O)CCn1nnc2ccccc21)c1cccs1`, the IC50 on Coagulation factor XII is > 50 µM (inactive).

With `COc1cccc(-c2cn(CC[C@@H]3CC[C@@H](NS(=O)(=O)c4ccccc4Cl)[C@H](CO)O3)nn2)c1`, in [11], the AC50 is 5.86 µM (active).

Turning to `Cc1ccccc1S(=O)(=O)N1[C@H](C#N)[C@@H](c2ccc(C#CC3CC3)cc2)[C@@H]1CO`, the half-maximal activity concentration (AC50) in assay [11] is 4.69 µM (active).
